Source: patent US9447083B2, “N-acylhydrazone derivatives for selective T cell inhibitor and anti-lymphoid malignancy drug” (CHONG KUN DANG PHARMACEUTICAL CORP., priority 2012, dated 2016)

Key:
[1] = test system: Jurkat T cells; experiment: Pro-apoptotic activity on Jurkat T cells (FITC-Annexin V / 7-AAD flow cytometry); assay type: cell-based; conditions: Homo sapiens, 72 hours, cells stained with FITC-Annexin V and 7-AAD among total cells, read-out: Cell Apoptosis Effect to Jurkat T Cell (% in 5 μM)
Method in brief: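 Jurkat cells at 1.5×10^5 cells/mL in RPMI/10% FBS treated with compounds at […] or 5 μM final for 72 h at 37° C, vehicle containing 1% DMSO. Stained with FITC-Annexin V and 7-AAD for 15 min at room temperature in pH 7.4 Hepes binding buffer. Apoptosis = % double-stained cells by flow cytometry.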

[2] = test system: Jurkat; experiment: Apoptosis of lymphoid malignancy cell lines (Annexin V / 7-AAD): Jurkat; assay type: cell-based; conditions: Homo sapiens, Acute T cell leukemia, 24 hours, read-out: Administration Dose (mean ± SD, μmol/L) Lethal Dose 50 (Apoptosis)
Description: (§1) Each of the acute T cell leukemia cell lines Jurkat, Molt4 and CCRF-CEM, the acute B cell leukemia cell line Raji and the […] cell lines KMS11, KMS12BM, KMS26, KMS28BM, and IM9 was re-suspended in 10% FBS-containing RPMI medium at a concentration of 1.5×10^5 cells/mL, and 200 μL of each of the cell suspensions was cultured in a flat bottom 96-well plate (Costar). The acute NK cell lymphoma cell line NK-92MI was re-suspended in α-MEM medium (supplemented with 20% FBS, 1×MEM vitamine solution, 50 μM 2-mercaptoethanol and 1× penicillin/streptomycin) at a concentration of 1.5×10^5 cells/mL, and 200 μL of the cell suspension was cultured in a flat bottom 96-well plate. The cells in each well was treated with 10 μL of each of 0.1, 0.25, 0.5, 0.75 and 1 μM of the compound diluted with RPMI medium, followed by that the cells were incubated in a 5% CO2 incubator at 37° C. for 24 hours. In a vehicle control group, cells were treated with 10 μL of medium containing 0.05% dimetylsulfoxide (DMSO, Sigma).
(§2) The cells were collected, and then the apoptosis thereof was analyzed by a flow cytometer after staining with Annexin V-7-AAD. The incubated cells were collected, placed in a 5-mL FACS tube (BD Falcon) and washed with 1 mL of fluorescence activated cell sorting (FACS) buffer (1%. FBS and 0.1% sodium azaide in PBS). The cells were re-suspended in 0.1 mL of FACS buffer, followed by that the cells were treated and stained with phycoerythrin-Annexin V at room temperature for 10 minutes. After 10 minutes of staining, the cells were treated and stained with 7-AAD at room temperature for 5 minutes. The stained cells were suspended in 0.3 mL of FACS buffer, and then analyzed by a flow cytometer. […] Thus, compounds 065, 108, 229 and 457 of the present invention can be used as a novel anti-lymphoid malignancy drug.

[3] = test system: IM9; experiment: Apoptosis of lymphoid malignancy cell lines: IM9; assay type: cell-based; conditions: Homo sapiens, IM-9; IM9, Multiple myeloma, 24 hours; read-out: Administration Dose (mean ± SD, μmol/L) Lethal Dose 50 (Apoptosis)
Description: as §1, §2

[4] = test system: Molt4; experiment: Apoptosis of lymphoid malignancy cell lines: Molt4; assay type: cell-based; conditions: Homo sapiens, MOLT-4; Molt4, Acute T cell leukemia, 24 hours; read-out: Administration Dose (mean ± SD, μmol/L) Lethal Dose 50 (Apoptosis)
Description: as §1, §2

[5] = test system: KMS28BM; experiment: Apoptosis of lymphoid malignancy cell lines: KMS28BM; assay type: cell-based; conditions: KMS-28BM, Multiple myeloma, 24 hours, read-out: Administration Dose (mean ± SD, μmol/L) Lethal Dose 50 (Apoptosis)
Description: as §1, with “In a vehicle control group, cells were treated with 10 μL of medium containing 0.05% dimetylsulfoxide (DMSO, Sigma).” left out
(§3) The cells were collected, and then the apoptosis thereof was analyzed by a flow cytometer after staining with Annexin V-7-AAD. The incubated cells were collected, placed in a 5-mL FACS tube (BD Falcon) and washed with 1 mL of fluorescence activated cell sorting (FACS) buffer (1%. FBS and 0.1% sodium azaide in PBS). […] The stained cells were suspended in 0.3 mL of FACS buffer, and then analyzed by a flow cytometer. […]

[6] = test system: CCRF-CEM; experiment: Apoptosis of lymphoid malignancy cell lines: CCRF-CEM; assay type: cell-based; conditions: Homo sapiens, Acute T cell leukemia, 24 hours, read-out: Administration Dose (mean ± SD, μmol/L) Lethal Dose 50 (Apoptosis)
Description: as §1, with “In a vehicle control group, cells were treated with 10 μL of medium containing 0.05% dimetylsulfoxide (DMSO, Sigma).” left out
as §3

[7] = test system: NK-92MI; experiment: Apoptosis of lymphoid malignancy cell lines: NK-92MI; assay type: cell-based; conditions: Acute NK cell lymphoma, 24 hours, read-out: Administration Dose (mean ± SD, μmol/L) Lethal Dose 50 (Apoptosis)
Description: as §1, with “In a vehicle control group, cells were treated with 10 μL of medium containing 0.05% dimetylsulfoxide (DMSO, Sigma).” left out
as §3

[8] = test system: KMS26; experiment: Apoptosis of lymphoid malignancy cell lines: KMS26; assay type: cell-based; conditions: KMS-26; KMS26, Multiple myeloma, 24 hours; read-out: Administration Dose (mean ± SD, μmol/L) Lethal Dose 50 (Apoptosis)
Description: as §1, with “In a vehicle control group, cells were treated with 10 μL of medium containing 0.05% dimetylsulfoxide (DMSO, Sigma).” left out
as §3

[9] = test system: Raji; experiment: Apoptosis of lymphoid malignancy cell lines: Raji; assay type: cell-based; conditions: Homo sapiens, Acute B cell leukemia, 24 hours, read-out: Administration Dose (mean ± SD, μmol/L) Lethal Dose 50 (Apoptosis)
Description: as §1, with “In a vehicle control group, cells were treated with 10 μL of medium containing 0.05% dimetylsulfoxide (DMSO, Sigma).” left out
as §3

[10] = test system: KMS12BM; experiment: Apoptosis of lymphoid malignancy cell lines: KMS12BM; assay type: cell-based; conditions: Homo sapiens, KMS-12-BM, Multiple myeloma, 24 hours, read-out: Administration Dose (mean ± SD, μmol/L) Lethal Dose 50 (Apoptosis)
Description: as §1, with “In a vehicle control group, cells were treated with 10 μL of medium containing 0.05% dimetylsulfoxide (DMSO, Sigma).” left out
as §3

[11] = test system: KMS11; experiment: Apoptosis of lymphoid malignancy cell lines: KMS11; assay type: cell-based; conditions: Homo sapiens, KMS-11; KMS11, Multiple myeloma, 24 hours; read-out: Administration Dose (mean ± SD, μmol/L) Lethal Dose 50 (Apoptosis)
Description: as §1, with “In a vehicle control group, cells were treated with 10 μL of medium containing 0.05% dimetylsulfoxide (DMSO, Sigma).” left out
as §3

[12] = test system: Experimental Autoimmune Encephalomyelitis (EAE); experiment: Experimental Autoimmune Encephalomyelitis (EAE) model of multiple sclerosis; assay type: in vivo, mouse; conditions: 1 mg/kg orally daily from 17 to 37 days
Description: At the first day of induction, myelin oligodendrocyte glycoprotein35-55 (MOG35-55, Peptron) (200 ug), mycobacterium tuberculosis (Difco, Cat No. 231141) (500 μg) and complete Freund's adjuvant (Sigma Aldrich, Cat No. F5506) were mixed with each other and immersed for 5 minutes. 0.1 mL of the immersed peptide was injected subcutaneously into both the flanks of each of C57BL/6 mice (9 week old, female, 18±2 g), followed by that […] pertussis toxin (Sigma Aldrich, Cat No. P2980) (200 ng) was injected by intravenously. At 2 days, the same amount of pertussis toxin was administered intravenously. Whether the immersion leaked from the injected portion of the mice was checked, and whether EAE was induced was also examined by visual observation from 7 days.
Compound 229 and Fingolimod that is currently clinically used for the treatment of multiple sclerosis were completely dissolved in a Cremophor EL-ethanol mixture (1:1, v/v) in an amount corresponding to 7.5% (v/v) of the administration volume, and the compound solution was diluted in PBS. The two groups of the mice were administered orally with 200 μL of the diluted solution of compound 229 at each doses of 25 and 50 mg/kg separately, and the third group of the mice was administered orally with 200 μL of the diluted solution of fingolimode at a dose of 1 mg/kg on a daily basis from 17 days to 37 days (for total 21 times) after starting of the experiment. In a vehicle control group, 200 μL of a Cremophor EL-ethanol-PBS mixture (3.75:3.75:92.5, v/v/v) was administered to each mouse in the same manner as the treated group. The index of EAE was recorded daily based on visual observation using a severity index system (6-point (0 to 5) scale) from 7 days of the experiment. The symptoms of multiple sclerosis were evaluated based on the following criteria:
2: limp tail and hind limb weakness;
4: hind limb paralysis and forelimb weakness; and […]

[13] = test system: acute graft-versus-host disease; experiment: Acute graft-versus-host disease, mouse model of allogeneic bone marrow transplantation; assay type: in vivo; conditions: 25 mg/kg intraperitoneally daily for 10 days
Text: Lymph nodes, spleens, both femurs and tibias were aseptically collected from normal C57BL/6 mice (8-12 week old, female, 20-23 g), and T cells were isolated from the lymph nodes and spleens in the same manner as described in Experimental Example 2 and were re-suspended in PBS at a concentration of 8×10^7 cells/mL. The femurs and tibias were cut at the ends, and the bone marrow was flushed from femurs and tibias with RPMI medium using a syringe (21G for femur and 26G for tibia) to extract the marrow, which was then suspended and passed through a cell strainer to make a single cell suspension. The bone marrow cell suspension was centrifuged at 1200 rpm for 5 minutes, and the supernatant was removed, then the cells were added to 1 mL of ACK lysis buffer and vortexed for 1 minute, followed by washing with RPMI medium. […] The incubated cell suspension was added with 5 mL of MACS buffer, centrifuged for 5 minutes, washed, and then re-suspended in 2 mL of MACS buffer. The suspended cells were placed in the autoMACS Pro Separator, and T cells bound to the CD90.2 microbeads were removed. The separated T cell-depleted bone marrow cells (TCD-BM) were washed with PBS and re-suspended in PBS at a concentration of 1×10^8 cells/mL. Normal BDF1 mice (10-12 week old, female, 20-23 g) were irradiated with 850 rad of γ radiation using an irradiator, and then 100 μL of a graft obtained by mixing the C57BL/6 mouse T cells and the TCD-BM at a ratio of 1:1 was injected into the tail vein of the BDF1 mice. In a group treated with compound 229 of the present invention, compound 229 was completely dissolved in a Cremophor EL-ethanol mixture (1:1, v/v) in an amount corresponding to 15% (v/v) of the administration volume, after which the compound solution was diluted in PBS, and the dilution was administered intraperitoneally to each mouse at a dose of 25 mg/kg daily for 10 days from the day of the graft injection. Meanwhile, Tacrolimus that is a currently clinically used immunosuppressive agent was administered to mice of another group in the same amount as compound 229 in order to compare the inhibitory effect on acute graft-versus-host disease, and mice of a vehicle control group were administered with 200 μL of a Cremophor EL-ethanol-PBS (7.5:7.5:85, v/v/v) in the same manner as the treated groups. Then, the survival of mice was monitored daily, and the severity of GVHD was assessed twice a week with clinical GVHD scoring system for each a decrease in weight loss, hunched posture, decreased activity, fur ruffling and skin lesions. Each parameters were scored on a 3-point (0 to 2) scale.

Q: For `Cc1cc(C)c(OCC(=O)N/N=C/c2cccc3[nH]ccc23)c(C)c1` [Compound 065, (E)-N′-((1H-indol-4-yl)methylene)-2-(mesityloxy)acetohydrazide], which cytotoxicity at 5 µM [1] is on record?
A: 100%

Q: What about the EC50 [2] of the same compound?
A: 0.79 ± 0.01 µmol/L

Q: And the EC50 [3]?
A: 1.21 ± 0.01 µmol/L

Q: And the EC50 [4]?
A: 1.58 ± 0.03 µmol/L

Q: What does the source list for `Cc1cc(C)c(OCC(=O)N/N=C/c2ccc3cc[nH]c3c2)c(C)c1` [Compound 108, (E)-N′-((1H-indol-6-yl)methylene)-2-(mesityloxy)acetohydrazide]?
A: cytotoxicity at 5 µM [1]: 100%; EC50 [2]: 0.78 ± 0.04 µmol/L; EC50 [3]: 1.41 ± 0.03 µmol/L; EC50 [4]: 1.38 ± 0.04 µmol/L

Q: What does the source list for `Cc1cc(C)c(OCC(=O)N/N=C/c2ccc3cc[nH]c3c2)c(C2CCOCC2)c1` [Compound 457, (E)-N′-((1H-indol-6-yl)methylene)-2-(2,4-dimethyl-6-(tetrahydro-2H-pyran-4-yl)phenoxy)acetohydrazide]?
A: EC50 [5]: 0.47 ± 0.06 µmol/L; cytotoxicity at 5 µM [1]: 100%; EC50 [6]: 0.17 µmol/L; EC50 [7]: 0.46 ± 0.01 µmol/L; EC50 [2]: 0.2 ± 0.01 µmol/L; EC50 [8]: 0.55 ± 0.12 µmol/L; EC50 [3]: 0.38 ± 0.01 µmol/L; EC50 [4]: 0.25 ± 0.11 µmol/L; EC50 [9]: 0.68 ± 0.05 µmol/L; EC50 [10]: 0.22 ± 0.02 µmol/L; EC50 [11]: 0.63 ± 0.31 µmol/L

Q: `CCCCCCCCc1ccc(CCC(N)(CO)CO)cc1` [Fingolimod, reference compound] was tested. Which “severity index (EAE, 0 to 5 scale)” value ([12]; at 17 days (start of administration)) did it give?
A: 3±1

Q: And the “severity index (EAE, 0 to 5 scale)” value ([12]; at 39 days, vehicle 2.5±0.75)?
A: 1.5±0.5

Q: What about the “severity index (EAE, 0 to 5 scale)” value ([12]; at 101 days, vehicle 2.33±0.25) of the same compound?
A: 2.7±0.25

Q: What does the source list for `C=CC[C@@H]1/C=C(\C)C[C@H](C)C[C@H](OC)[C@H]2O[C@@](O)(C(=O)C(=O)N3CCCC[C@H]3C(=O)O[C@H](/C(C)=C/[C@@H]3CC[C@@H](O)[C@H](OC)C3)[C@H](C)[C@@H](O)CC1=O)[C@H](C)C[C@@H]2OC` [Tacrolimus, reference compound]?
A: severity of GVHD (clinical scoring system) [13]: ruffled fur and severe skin lesions; survival rate ([13]; final (day 70), vehicle 10%): 50%; mouse death, days after cell transplantation ([13]; vehicle from 29 days): ≥ 23 days
